Reference: patent US20150118229A1, “JAK1 SELECTIVE INHIBITOR AND USES THEREOF” (ABBVIE INC., priority 2013, published 2015)

Key:
[1] = test system: peripheral NK cell counts; assay: Peripheral NK cell counts in healthy rats; assay type: in vivo, rat; conditions: rat
Text: The correlation of this effect with ex vivo cytokine signaling inhibition is shown in the right panel of FIG. 6. These measurements correlated well, confirming the Jak dependency of the NK cell count endpoint.
To establish the relationship between changes in NK cell counts and nonclinical efficacy, the changes in NK cell counts were compared with decreases in rat AIA disease activity per unit exposure.

[2] = test system: adjuvant-induced arthritis (paw swelling, bone erosion); assay: Adjuvant-induced arthritis (AIA) in Lewis rats; assay type: in vivo
Protocol: The inflammation appears in the contra-lateral (left) hind paw seven days after the initial immunization. […] Rats are lightly anesthetized with an inhalant anesthetic (isoflurane) and the contra-lateral (left) hind paw is dipped into the plethysmograph and the paw volume is recorded. The rats are scored every other day up to day 17 after immunization. […] Bone volume and density is determined for a 360 μm (200 slice) vertical section encompassing the tarsal section of the paw. […] Drug exposure is determined in the plasma using LC/MS.

C[C@@H]1CCN(C(=O)CC#N)C[C@@H]1N(C)c1ncnc2[nH]ccc12 [Tofacitinib, reference compound]
NK Counts (exposure) [1]: 391 ng·h/mL | NK cell count decrease at about 60% efficacy (inhibition of paw swelling) [1]: about 80% | efficacious exposure (AUC60), PK/PD modeling ([2]; AIA rats, about 60% inhibition of paw swelling): ~300 ng·h/mL | AUC60 (60% inhibition of paw swelling), total AUC0-12 ([2]; oral bid, last day of study): 392 ± 121 ng·h/mL | AUC60, fraction unbound AUC0-12 ([2]; oral bid, last day of study): 300 ± 98 ng·h/mL | Paw Swelling (exposure) ([2]; rat AIA): 514 ng·h/mL | inhibition of Paw Swelling reached at about the same level of reticulocyte inhibition ([2]; rat AIA vs reticulocyte deployment): about 60%
